Tests used:
[1] = test system: relapsing MS; details: cited from earlier work
[2] = test system: subjects with relapsing remitting multiple sclerosis (RRMS); assay: ALLEGRO Phase III trial: patient-reported fatigue and health status (MFIS, SF-36, EQ5D); format: in vivo, human; details: over 24 months
Experimental: The following assessments were performed at specified time points: • 1. Vital signs were measured at each study visit. • 2. A physical examination is performed at months −1 (screening), 0 (baseline) 1, 3, 6, 12, 18 and 24 (termination/early discontinuation core study). In case of the 6 months extended study, additional examination was performed at month 30 (termination/early discontinuation of extended study). • 3. The following safety clinical laboratory tests were performed: • a. Complete blood count (CBC) with differential—at all scheduled visits. A reticulocyte count was added to the CBC at months 0 (baseline) and 24/30 (termination/early discontinuation). • b. […] Adverse Events (AEs) are monitored throughout the study. • 9. Concomitant medications are monitored throughout the study. • 10. […] MS functional Composite (MSFC) was assessed at months −1 (screening) (three practices for training purposes only), at month 0 (baseline), 6, 12, 18 and 24 (termination/early discontinuation). […] Subject-reported fatigue was assessed by the Modified Fatigue Impact Scale (MFIS) at months 0, 6, 12, 18, and 24 (termination/early discontinuation). […] The general health status was assessed by the EuroQoL (EQ5D) questionnaire at month 0 (baseline) and month 24 (termination/early discontinuation of the study). […]

[3] = test system: subjects with relapsing remitting multiple sclerosis (RRMS); assay: ALLEGRO (MS-LAQ-301) Phase III trial: relapse endpoints; format: in vivo, human
Source text: The primary endpoint of the study was the number of confirmed relapses during the double-blind treatment period, which corresponds to the annualized relapse rate (ARR—number of relapses divided by total exposure of all patients). Secondary endpoints included disability as measured by Expanded Disability Status Scale (EDSS) changes confirmed at 3 months, and cumulative number of gadolinium enhancing (GdE) and new/enlarging T2 MRI lesions. […] Eligible subjects were equally randomized 1:1 into one of the following treatment arms: • 1. […] 21, 2007 (see, page 10, line 5 to page 11, line 3). • 2. Matching placebo for laquinimod arm: one capsule is administered once daily. The primary endpoint was the number of confirmed relapses during the double-blind study period. A relapse was defined as the appearance of one or more new neurological abnormalities or the reappearance of one or more previously observed neurological abnormalities lasting for at least 48 hours and after an improved neurological state for at least 30 days. An event was counted as a relapse if the subject's symptoms were accompanied by observed objective neurological changes consistent with at least one of the following: an increase of at least 0.5 in the EDSS score; an increase of one grade in two or more of the seven functional systems; or an increase of two grades in one functional system. Standardized treatment of relapses was intravenous methylprednisolone 1 g/day for up to five consecutive days based on the treating neurologist's decision. The number of confirmed relapses (and Annualized relapse rate) during the double blind study period. The analysis of the total number of confirmed relapses during the study period is based on baseline adjusted Quasi-Likelihood (over-dispersed) Poisson Regression. Using the Poisson regression with the treatment group as a covariate, the ARR of each group was calculated for the intent-to-treat (ITT) cohort as the total number of confirmed relapses for all patients in each group divided by the total patient years in that group. In addition to the treatment group, the following covariates were included: baseline EDSS score, log of the (prior 2-year number of relapses +1) and country or geographical region.

[4] = post-hoc, vs placebo, listed as laquinimod

Question: Which “Development of active MRI lesions” value [1] does the source give for `CCN(C(=O)c1c(O)c2c(Cl)cccc2n(C)c1=O)c1ccccc1` [Laquinimod, laquinimod] here?
Answer: Its value is “reduce development of active MRI lesions”.

Question: What about the “SF-36 physical component summary (PCS) course” value [2] of the same molecule?
Answer: The value was “remained stable”.

Question: What about the “Relapses requiring hospitalization (annualized rate)” value ([3]; post-hoc) of the same molecule?
Answer: Its value is 0.071.

Question: What about the “ARR 1st year, Effect” value ([3]; post-hoc, vs placebo) of the same molecule?
Answer: Its value is 24% reduction.

Question: And the “ARR by median relapse duration: >34 days, Effect” value ([3]; post-hoc, vs placebo)?
Answer: Its value is 1.3% reduction.

Question: And the “ARR by median relapse duration: ≦34 days, Effect” value ([3]; post-hoc, vs placebo)?
Answer: Its value is 37% reduction.

Question: And the “ARR for dropouts, Effect” value ([3]; post-hoc, vs placebo)?
Answer: Its value is 26% reduction.

Question: And the “ARR, Full recovery, Effect” value ([3]; post-hoc, vs placebo)?
Answer: Its value is 13% reduction.

Question: And the “ARR, No recovery, Effect” value ([3]; post-hoc, vs placebo)?
Answer: The value was 24% reduction.

Question: And the “Relapses requiring IV steroids, Effect” value ([3]; post-hoc, vs placebo)?
Answer: Its value is 27% reduction.

Question: And the “Relapses requiring hospitalization, Effect” value ([3]; post-hoc, vs placebo)?
Answer: Its value is 38% reduction.

Question: What about the “Unconfirmed relapses, Effect” value ([3]; post-hoc, vs placebo) of the same molecule?
Answer: The value was 17% reduction.

Question: What about the “Relapses requiring IV steroids, Effect” value [3, 4] of the same molecule?
Answer: Its value is 27 % reduction.

Question: What about the “Relapses requiring hospitalization, Effect” value [3, 4] of the same molecule?
Answer: Its value is 38 % reduction.

Question: What about the “ARR, No recovery” value ([3]; post-hoc, recovery refers to EDSS before and after attack) of the same molecule?
Answer: Its value is 0.06.

Question: What about the “Annualized rate of relapses requiring hospitalization and/or IV steroids, Effect” value ([3]; vs placebo) of the same molecule?
Answer: Its value is 27% reduction.

Question: And the “Relapse-free during study, increase in odds to be relapse free” value ([3]; vs placebo)?
Answer: The value was 55% increase odds to.

Question: What about the “Relapse-free during study, increase in odds to be relapse free” value ([3]; vs placebo, listed as laquinimod) of the same molecule?
Answer: The value was 55%.
